Assay results as given in patent US20240082373A1, “COMPOSITIONS FOR CHIMERIC ANTIGEN RECEPTOR T CELL THERAPY AND USES THEREOF” (priority 2017, published 2024).

What was measured:
[1] = test system: FITC-CAR-T; test: FITC-CAR-T proliferation in lymph nodes after vaccination (CTV-labeled cells); format: in vivo, C57Bl/6 mice; settings: adjuvant alone, 25 ug
Experimental: To assess whether DSPE-PEG-FITC accumulating on lymph node antigen presenting cells would lead to CAR T cell priming and how long this stimulatory effect would last for, at day 1, mice were administered PBS, c-di-GMP (25 ug), DSPE-PEG-FITC (10 nmol), or DSPE-PEG-FITC (10 nmol)+c-di-GMP (25 ug) into wildtype C57Bl/6 mice. After various time points, as indicated in the timeline in FIG. 7A, 2×10^6 CTV-labeled CAR-T cells were transferred into each mouse via tail-vein injection. CAR-T cells were titrated to be a mixture of CAR+ and CAR-cells at 1:1 ratio. After another 48 hours, mice were sacrificed and LNs were removed for FACS analysis.

[2] = Trafficking to and retention in lymph nodes (IVIS imaging); format: in vivo, mice; settings: free FITC control
Experimental: Based on the results of Example 2, it was next determined whether the amphiphilic ligand conjugate DSPE-PEG-FITC could coat antigen presenting cells in lymph nodes (LN) to prime FITC-CAR-T cells in vivo. To assess DSPE-PEG-FITC trafficking to the lymph node and retention and uptake by APCs, C57BIU6 mice received varying doses of DSPE-PEG-FITC. Specifically, inguinal LN, auxiliary LN and lilac LN were harvested 24 hours after administration of 2 nmol, 5 nmol, or 10 nmol doses of DSPE-PEG-FITC was into the tail-veil of the mice. Free FITC was used as control. Mice were sacrificed and LNs were removed at different time point for IVIS imaging (excitation 465 nm, emission 520 nm) to monitor LN retention of FITC signal.
While FITC signal was almost lost at the lowest dose (2 nmol) after 4 days, the signal was retained for more than 21 days at high dose (10 nmol) of DSPE-PEG-FITC (FIG. 3A). Free FITC signal was lost in 24 hours (FIG. 3A).

[3] = mouse, in vivo

Nc1nc2c(ncn2[C@@H]2O[C@@H]3COP(=O)(O)O[C@H]4[C@@H](O)[C@H](n5cnc6c(=O)[nH]c(N)nc65)O[C@@H]4COP(=O)(O)O[C@H]3[C@H]2O)c(=O)[nH]1 [c-di-GMP, cyclic-di-GMP]
proliferation of CAR-T cells in LN [1]: Minimal proliferation

fluorescein isothiocyanate [Free FITC]
time in which FITC signal was lost in LN [2]: ≤ 24 h

B1: FITC-OVA: FITC conjugated to the carrier protein OVA (conjugate, UniProt P01012 2-386, looked up)
Ovalbumin: GSIGAASMEFCFDVFKELKVHHANENIFYCPIAIMSALAMVYLGAKDSTRTQINKVVRFDKLPGFGDSIEAQCGTSVNVHSSLRDILNQITKPNDVYSFSLASRLYAEERYPILPEYLQCVKELYRGGLEPINFQTAADQARELINSWVESQTNGIIRNVLQPSSVDSQTAMVLVNAIVFKGLWEKAFKDEDTQAMPFRVTEQESKPVQMMYQIGLFRVASMASEKMKILELPFASGTMSMLVLLPDEVSGLEQLESIINFEKLTEWTSSNVMEERKIKVYLPRMKMEEKYNLTSVLMAMGITDVFSSSANLSGISSAESLKISQAVHAAHAEINEAGREVVGSAEAGVDAASVSEEFRADHPFLFCIKHIATNAVLFFGRCVSP
modifications: FITC
antibody response against FITC [3]: no antibody response was observed
